# In US11220534B2, “Treatment of neurological diseases” (Lancaster University Business Enterprises Limited, priority 2016, dated 2022):
# Where no end group is shown, it is not given here. [ ]: non-standard residue; d: D form. Aib = CC(C)(N)C(=O)O
# Tested on: C57BL/6 mice given MPTP
# Assay: Immunohistochemistry for TH in the substantia nigra pars compacta, MPTP Parkinson mouse model
# Assay type: in vivo
# Conditions: 10 nmol/kg i.p. once daily for 2 weeks, FIG. 4, N=6 per group
# Description: A standard model to induce Parkinson like symptoms in mice is the injection of the chemical (MPTP) (Li et al., 2009). This chemical impairs or kills neurons in the brain that produce dopamine. The mice develop motor impairments, and the dopaminergic neurons in the brain are reduced in numbers and function. The enzyme tyrosine hydroxylase (TH) is required to synthesise dopamine. A loss of TH signifies a loss of dopamine production (Harkavyi et al., 2008).
# Adult male C57BL/6 mice were given the dopaminergic toxin MPTP (20 mg/kg in 0.1 mL of PBS i.p. at 2-h intervals of 4 doses MPTP; Sigma) or vehicle (PBS) for one day. […]
# Immunohistochemistry for TH in the Substantia Nigra Pars Compacta and the Striatum Six animals per group were analysed for expression of tyrosine hydroxylase (TH), a marker for dopamine production. Coronal brain sections (20 μm) from striatum (bregma […]) and SNpc (bregma […]) were analysed by immunohistochemistry using antibodies recognising TH.
# Sections were cut on a cryostat and postfixed in 4% paraformaldehyde, washed in PBS, treated with 0.3% H2O2 in methanol for 20 min, and washed again. […] For each animal, three tissue sections from one level of striatum were stained and analysed for TH-positive fibre innervation. […] Two tissue sections from each level were quantified by immunohistochemistry. […]
substance,measurement,value
"YXEGTFTSDYSIYLDKQAAXEFVNWLLAGGPSSGAPPPSKRRQRRKKRGY-NH2 (Y[Aib]EGTFTSDYSIYLDKQAA[Aib]EFVNWLLAGGPSSGAPPPSKRRQRRKKRGY-NH2) [DA5, No. 12; X=aminoisobutyric acid]","MPTP-induced reduction of TH in the substantia nigra, pars compacta (protection of dopaminergic neurons)",protected dopaminergic neurons at a greater rate than the single GIP and GLP-1 analogues
